Assay results: patent US20250387360A1, “Methods and Compositions for Treatment of Addiction” (University of Connecticut, priority 2024, published 2025)
“Also recorded” adds a separate entry of the source.

What was measured:
Assay type in all cases: in vivo, mouse
[1] = Daily body weight, food and fluid intake monitoring; conditions: 10-day supplementation
From the text: Male C57BL/6J mice, (RRID: IMSR_JAX: 000664), aged 6-8 weeks, were obtained from Jackson Laboratories (ME, U.S.A) for the study. The mice were housed individually under a reversed 12-hours light/dark cycle, with lights off from […] to 7:00 am. A minimum acclimation period of 2 weeks was provided for all animals before they were randomly assigned to their respective groups. Mice had free access to food (Irradiated chow, Teklad global 18% protein rodent diet, 2918, Inotiv, WI, U.S.A) and deionized water to acclimate to the testing environment. Body weight and daily food and fluid intake were monitored and noted for all animal experiments.
The food intake was assessed by providing a pre-weighed amount of food in their cage hopper and then weighing the remaining food inside the cage and in the hopper daily. To assess daily fluid intake, the sodium valerate and NaCl bottles were pre-weighed, and the remaining amount was deducted after the measurement period. Food and fluid intakes were normalized to mouse body weight by dividing the average intake by the average body weight.

male mice = test: Dosage dependent, short-term sodium valerate in 4-day DID regimen; conditions: day 1 to day 4, n=7/group, vs vehicle
Description: Different dosages of sodium valerate ranging from 20 mM to 200 mM were tested in male mice (n=7/group, 6-8 weeks old) using a 4-day DID regimen. Different dosages of sodium valerate were given through drinking water 30 min before the 2-hour drinking exposure at Day 1 and continued to day 4 except the drinking hours.
A standard 4-day drinking in the dark (DID) model was used to evaluate binge-like ethanol drinking patterns in mice. A 20% v/v ethanol solution was prepared by diluting 190-proof ethyl alcohol (Sigma, MO, U.S.A) with deionized water. During days 1-3, the water bottles were temporarily removed during the dark cycle of the mice, and the mice were provided with a tube containing the 20% v/v ethanol solution for a duration of two hours. On day four, the assessment of binge-like ethanol consumption took place, where the mice were given access to the 20% v/v ethanol solution for a period of four hours. The volume of fluid in the tube (read to the closest 100 μL) was measured immediately upon placement, and at two hours and four hours into the test. Following the completion of the four hours test, approximately 100 μL of blood was collected through cardiac puncture after CO2 euthanasia. Blood samples were subjected to centrifugation at 10,000 rpm for 10 minutes. […] The quantity of ethanol consumed was then calculated as grams per kilogram of the mouse's body weight. […]

female mice = test: 4-day DID regimen in young female mice; conditions: n=7/group, same DID protocol, vs vehicle control
Description: A standard 4-day drinking in the dark (DID) model was used to evaluate binge-like ethanol drinking patterns in mice. A 20% v/v ethanol solution was prepared by diluting 190-proof ethyl alcohol (Sigma, MO, U.S.A) with deionized water. During days 1-3, the water bottles were temporarily removed during the dark cycle of the mice, and the mice were provided with a tube containing the 20% v/v ethanol solution for a duration of two hours. On day four, the assessment of binge-like ethanol consumption took place, where the mice were given access to the 20% v/v ethanol solution for a period of four hours. The volume of fluid in the tube (read to the closest 100 μL) was measured immediately upon placement, and at two hours and four hours into the test. Following the completion of the four hours test, approximately 100 μL of blood was collected through cardiac puncture after CO2 euthanasia. Blood samples were subjected to centrifugation at 10,000 rpm for 10 minutes. The determination of blood ethanol concentrations (BEC) was performed using an Analox AMI Analyzer (Analox Instruments, MA, U.S.A). The quantity of ethanol consumed was then calculated as grams per kilogram of the mouse's body weight.

gut microbiome = test: 16S rRNA sequencing of stool and gut-brain module analysis; conditions: stool
Description: Microbial genomic DNA extraction from mouse stool samples was carried out using the Quick-DNA Fecal/Soil Microbe 96 Kit (Zymo Research, CA, U.S.A) following the manufacturer's protocols. The hypervariable region V4 of the bacterial 16S rRNA gene, 515F (5′-[sequence]-3′ (SEQ ID NO: 1)) and 806R (5′-[sequence]-3′ (SEQ ID NO: 2)) was amplified and sequenced on the Illumina MiSeq platform (2×250 bp) (Illumina, CA, U.S.A). The raw sequencing reads were processed via the DADA2 V1.16 (RRID:SCR_023519) data processing pipeline to generate amplicon sequence variants (ASVs). Taxonomic assignments were made using the Silva database V138.1 (RRID:SCR_006423), with a classification confidence threshold set at p<0.5 for assigning unclassified taxa at their respective taxonomical levels. PCR negative controls and extraction controls for DNA extraction and sequencing were included in the analysis. […] Sequencing reads from all the samples were rarified to 10,000 reads per sample. […] All of the microbiome analysis was done in R.
16S rRNA gene sequencing of stool samples collected before and after sodium valerate treatment (n=7 mice/group) was performed. […] Permutational multivariate analysis of variance (PERMANOVA) tests were performed on CLR-transformed data to test for beta-diversity differences between sodium valerate and NaCl-supplemented groups (n=14 mice/group).

C57BL/6J mice = test: Open field activity test (anxiety-like behavior); conditions: after 10 days supplementation, 10 min exploration, n=10 mice/group
Description: The open field activity test was conducted to assess the impact of sodium valerate supplementation on exploratory and anxiety-like behavior. This test is a widely used method for analyzing locomotor ability and anxiety-related emotional behaviors in C57BL/6J mice. The open field activity chamber, constructed from white Plexiglass and illuminated with daylight, had dimensions of 37.5 cm height×40 cm length×40 cm width. General locomotor activity was recorded for 10 min by an overhead camera and analyzed using an automated video tracking system (ANY-maze v.4.6, Stoelting, IL, U.S.A, RRID:SCR_014289). The primary variables of interest included the total distance traveled (cm), the number of entries in the center area (20 cm length×20 cm width), and the percentage of time spent in the center area of the open field.
The effects of sodium valerate and NaCl was examined on anxiety-like behavior (n=10 mice/group) after 10 days of supplementation by open-field activity test.

male mice (C57BL/6J) = test: Six-week repeated DID protocol
Description: In this study, the impact of sodium valerate treatment on ethanol intake and blood ethanol concentration (BEC) was assessed using a six-week Drinking in the Dark (DID) protocol in male mice (C57BL/6J). All mice (n=30) were single-housed and had ad libitum access to food and their respective drinking water. Water bottles were removed 30 minutes prior to and throughout each DID session. During the two-week baseline period, all mice underwent a standardized DID paradigm consisting of a 4-day cycle each week: 2-hour access to 20% ethanol on days 1-3, followed by a 4-hour session on day 4. Starting in week three, mice were randomly assigned to one of three groups (10 mice per group): (1) Valerate-i.p., which received intraperitoneal injections of sodium valerate (200 mg/kg body weight) 30 minutes before each DID session; (2) Valerate-drinking water, which received 200 mM sodium valerate in drinking water for 30 minutes before to each DID session; and (3) Control, which received no valerate treatment. Ethanol consumption was evaluated on day 4 of each week (Wecks 1-6), and BEC was measured on day 4 of weeks 2, 4, and 6.

For `CCCCC(=O)[O-].[Na+]` [sodium valerate], the “body weight vs NaCl group” value ([1]; n=10 mice/group) was “did not differ significantly; also recorded: did not affect”, the “fluid intake (intake of sodium valerate and NaCl) vs NaCl group” value ([1]; n=14 mice/group) was “no statistical difference; also recorded: did not affect” and the “food consumption vs NaCl group” value ([1]; n=14 mice/group) was “no statistical difference; also recorded: did not affect”. The “alcohol intake, 100 mM” value (male mice; 100 mM in drinking water 30 min before alcohol exposure) was “significantly decreased; also recorded: reduce drinking significantly”, the “alcohol intake, 200 mM” value (male mice; 200 mM in drinking water 30 min before alcohol exposure) was “significantly decreased; also recorded: reduce drinking significantly” and the “alcohol binge drinking in female mice” value (female mice) was “significantly reduced”. The “blood ethanol levels in female mice” value (female mice) was “significantly reduced”, the “abundance of Ileibacterium genera” value (gut microbiome; 10 days supplementation, adjusted p=0.24, unadjusted p=0.004) was “increase in abundance” and the “beta-diversity between sodium valerate and NaCl groups” value (gut microbiome; after 10 days of supplementation, PERMANOVA/PCA) was “increased dissimilarity”. The “Dubosiella abundance, log2Fold change” value (gut microbiome; after 10 days supplementation, DESeq2, adjusted p=9.46E-5) was 7.84, the distance travelled (C57BL/6J mice) was “did not lead to a significant change” and the “number of entries in center (mean±SD)” value (C57BL/6J mice; p=0.01 vs NaCl) was 57.50±5.48. For the same compound, the “percentage of time spent in center area (mean±SD)” value (C57BL/6J mice; p=0.03 vs NaCl) was 15.29±4.82, the “ethanol consumption week 5, Valerate-drinking water” value (male mice (C57BL/6J); 200 mM in drinking water for 30 min before each DID session from week 3, n=10, p<0.05 vs control) was “significantly reduced” and the “BEC week 6, Valerate-drinking water” value (male mice (C57BL/6J); 200 mM in drinking water for 30 min before each DID session, p<0.01 vs control) was “significant reductions”. The “ethanol consumption week 5, Valerate-i.p.” value (male mice (C57BL/6J); 200 mg/kg i.p. 30 min before each DID session from week 3, n=10, p<0.01 vs control) was “significantly reduced”, the “BEC week 6, Valerate-i.p.” value (male mice (C57BL/6J); 200 mg/kg i.p. 30 min before each DID session, p<0.01 vs control) was “significant reductions” and the “ethanol consumption week 6, Valerate-i.p.” value (male mice (C57BL/6J); 200 mg/kg i.p. 30 min before each DID session, p<0.1 vs control) was “trend toward reduced ethanol consumption”. For the same compound, the “effects during the initial weeks of treatment” value (male mice (C57BL/6J); both valerate groups) was “no significant effects”.
